# From PMC11975020, “Chemoproteomic analysis reveals RECQL4 as a mediator of nitroalkene-dependent double-strand break repair inhibition in cancer” (Research Square, 2025)
# Target: T1, RECQL4 (Homo sapiens, UniProt O94761)
# T1 construct: RECQL4^449–1111 (lacking the N-terminus)
# T1 sequence (O94761 449-1111): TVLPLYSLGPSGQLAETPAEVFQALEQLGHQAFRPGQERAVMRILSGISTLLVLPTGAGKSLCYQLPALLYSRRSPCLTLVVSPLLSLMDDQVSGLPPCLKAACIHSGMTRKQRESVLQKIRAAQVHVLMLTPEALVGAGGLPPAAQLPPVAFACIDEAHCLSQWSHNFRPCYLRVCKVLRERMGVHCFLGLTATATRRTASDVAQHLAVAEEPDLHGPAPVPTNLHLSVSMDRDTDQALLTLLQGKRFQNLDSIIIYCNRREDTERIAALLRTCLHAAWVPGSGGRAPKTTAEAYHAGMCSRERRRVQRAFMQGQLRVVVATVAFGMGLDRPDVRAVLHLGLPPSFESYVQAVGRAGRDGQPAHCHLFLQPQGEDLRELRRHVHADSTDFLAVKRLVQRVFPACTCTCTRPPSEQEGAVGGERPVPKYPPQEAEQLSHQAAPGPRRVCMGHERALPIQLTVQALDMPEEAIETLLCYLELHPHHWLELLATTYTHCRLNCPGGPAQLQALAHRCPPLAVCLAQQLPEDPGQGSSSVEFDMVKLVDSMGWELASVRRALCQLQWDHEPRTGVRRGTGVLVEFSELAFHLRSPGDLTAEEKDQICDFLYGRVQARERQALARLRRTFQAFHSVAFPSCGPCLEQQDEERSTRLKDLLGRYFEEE
# Test: gel-based helicase unwinding assay with purified protein; confirmed by real-time fluorescence helicase assay; LC-MS/MS adduct at Cys1052 in U2OS cells
# Assay type: biochemical
smiles,measurement,value
CCCCCCCC/C(=C\CCCCCCCC(=O)O)[N+](=O)[O-] [OA-NO2],IC50,252 nM
